Each structure is given as a SMILES string. The source made the active and inactive calls. No stated cut-off is given here; in the data, actives have a measured IC50 and inactives only a lower limit.

In the assay the target is Envelope glycoprotein gp160 (Human immunodeficiency virus 1, UniProt Q6QLK5). Nature of the assay: inhibitors of HIV fusion peptide binding, primary screen, biochemical, uHTS, fluorescence dequenching (AID 1986).
Envelope glycoprotein gp160, sequence (Q6QLK5 whole entry, the tested form may be a part): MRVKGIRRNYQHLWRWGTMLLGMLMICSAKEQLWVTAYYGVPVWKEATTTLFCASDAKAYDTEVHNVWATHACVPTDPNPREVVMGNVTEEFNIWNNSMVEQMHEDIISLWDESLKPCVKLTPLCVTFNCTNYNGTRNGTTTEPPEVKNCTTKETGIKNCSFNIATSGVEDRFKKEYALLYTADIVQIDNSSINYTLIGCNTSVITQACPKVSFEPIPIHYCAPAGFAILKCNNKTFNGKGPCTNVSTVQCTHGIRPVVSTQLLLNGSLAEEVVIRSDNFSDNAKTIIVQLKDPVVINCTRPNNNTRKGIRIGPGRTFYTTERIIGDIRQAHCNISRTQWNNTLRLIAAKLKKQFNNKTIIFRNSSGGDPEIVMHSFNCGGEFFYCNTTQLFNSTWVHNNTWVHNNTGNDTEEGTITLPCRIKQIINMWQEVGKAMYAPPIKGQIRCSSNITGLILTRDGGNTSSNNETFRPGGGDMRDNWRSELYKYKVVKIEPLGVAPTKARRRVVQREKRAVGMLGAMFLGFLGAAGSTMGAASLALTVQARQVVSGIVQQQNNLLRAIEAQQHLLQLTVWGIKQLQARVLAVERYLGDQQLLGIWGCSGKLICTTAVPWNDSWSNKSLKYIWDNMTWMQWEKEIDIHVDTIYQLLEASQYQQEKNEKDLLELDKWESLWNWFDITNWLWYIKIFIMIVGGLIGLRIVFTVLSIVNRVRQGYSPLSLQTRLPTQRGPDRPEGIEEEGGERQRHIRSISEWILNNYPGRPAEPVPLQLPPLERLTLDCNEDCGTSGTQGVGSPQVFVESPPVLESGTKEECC
As a reminder, the IC50 is the concentration at which inhibition is half-maximal. In the case of `Cc1oc2c(cc(NS(=O)(=O)c3ccc(C(C)C)cc3)c3ccccc32)c1C(=O)O`, the IC50 was 14.8 µM (active).
In the case of `N#Cc1c(SCC(=O)Nc2nc3ccc(Br)cc3s2)sc2c(O)cc(=O)[nH]c12`, the IC50 is 11 µM (active).
Regarding `O=C(CCN1C(=O)/C(=C/c2cccs2)SC1=S)Nc1ccc(C(=O)O)c(O)c1`, the IC50 was 11.6 µM (active).
Take `COc1cccc(OCCOc2ccc(/C=C3\C(=N)N4N=C(S(C)(=O)=O)SC4=NC3=O)cc2OC)c1`: the IC50 is 43.8 µM (active).
`O=C(O)c1cc(-c2ccc(/C=N/Nc3ccc(Cl)cc3)o2)ccc1Cl`: the IC50 was 24.1 µM (active).

The values above are taken from ChEMBL document CHEMBL1201862, “PubChem BioAssay data set” (2004).
